{"source": "patent US11331299B2", "about": "“Medicinal use of serrulatane diterpenes” (The University of Sydney, priority 2016, dated 2022)", "key": {"[1]": {"system": "Hs695T melanoma cell line", "assay": "OncoPanel cell proliferation assay (10-day)", "type": "cell-based", "settings": "Homo sapiens, Hs 695T; for EC50: read-out: Cell Count EC50; for IC50: read-out: Cell Count IC50"}, "DNMT3B/DNMT3L (h)": {"molecular_target": "DNMT3B/DNMT3L (h) (Homo sapiens, UniProt Q9UBC3)", "assay": "Epigenetic enzyme assay, DNA methyltransferases (DNMTs)", "type": "biochemical", "settings": "for inhibition at 10 µM: read-out: % Inhibition of Control Values"}, "FBXL10 (h)": {"molecular_target": "T1, FBXL10 (h) (Homo sapiens, UniProt Q8NHM5)", "T1 sequence (Q8NHM5 1-1336)": "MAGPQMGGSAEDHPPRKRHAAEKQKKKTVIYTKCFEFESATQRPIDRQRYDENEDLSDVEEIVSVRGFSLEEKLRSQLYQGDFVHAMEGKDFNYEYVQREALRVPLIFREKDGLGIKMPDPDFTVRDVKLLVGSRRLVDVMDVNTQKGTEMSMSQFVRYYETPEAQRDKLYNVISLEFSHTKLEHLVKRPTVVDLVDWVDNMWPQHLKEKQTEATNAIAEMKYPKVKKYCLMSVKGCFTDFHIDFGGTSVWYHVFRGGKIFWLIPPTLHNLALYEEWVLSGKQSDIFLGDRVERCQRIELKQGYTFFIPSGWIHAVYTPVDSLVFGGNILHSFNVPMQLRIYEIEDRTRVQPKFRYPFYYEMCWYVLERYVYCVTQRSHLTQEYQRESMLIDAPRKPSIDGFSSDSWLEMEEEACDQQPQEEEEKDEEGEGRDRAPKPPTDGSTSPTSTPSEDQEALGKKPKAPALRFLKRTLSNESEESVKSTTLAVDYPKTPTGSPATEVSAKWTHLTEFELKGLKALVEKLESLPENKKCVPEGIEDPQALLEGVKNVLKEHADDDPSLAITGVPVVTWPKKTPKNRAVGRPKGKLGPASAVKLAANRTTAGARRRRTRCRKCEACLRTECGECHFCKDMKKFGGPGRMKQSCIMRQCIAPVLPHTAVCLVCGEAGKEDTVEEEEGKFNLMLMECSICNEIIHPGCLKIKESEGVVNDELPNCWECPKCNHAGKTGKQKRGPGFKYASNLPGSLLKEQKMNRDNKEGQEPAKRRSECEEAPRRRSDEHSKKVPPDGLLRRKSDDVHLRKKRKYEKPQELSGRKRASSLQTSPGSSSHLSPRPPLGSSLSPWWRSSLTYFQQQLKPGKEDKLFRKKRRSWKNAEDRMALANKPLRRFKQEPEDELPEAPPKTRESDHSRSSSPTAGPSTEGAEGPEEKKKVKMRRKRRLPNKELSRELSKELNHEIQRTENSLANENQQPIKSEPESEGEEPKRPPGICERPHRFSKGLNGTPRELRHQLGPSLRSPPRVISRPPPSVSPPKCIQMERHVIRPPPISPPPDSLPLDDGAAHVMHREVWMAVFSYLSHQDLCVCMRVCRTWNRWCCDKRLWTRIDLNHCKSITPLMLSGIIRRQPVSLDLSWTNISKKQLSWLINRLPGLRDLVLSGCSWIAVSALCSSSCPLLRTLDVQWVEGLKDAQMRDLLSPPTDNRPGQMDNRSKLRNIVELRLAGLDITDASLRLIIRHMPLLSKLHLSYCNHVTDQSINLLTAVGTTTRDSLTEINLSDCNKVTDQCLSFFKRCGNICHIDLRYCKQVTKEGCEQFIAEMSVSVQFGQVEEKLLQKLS", "assay": "Epigenetic enzyme assay, Demethylases (KDMs)", "type": "biochemical", "settings": "10 μM; read-out: % Inhibition of Control Values"}, "BRD3(1) (h) bromodomain": {"molecular_target": "T2, BRD3(1) (h) bromodomain (Homo sapiens, UniProt Q15059)", "T2 construct": "Bromodomain", "T2 sequence (Q15059 34-140 limits assumed)": "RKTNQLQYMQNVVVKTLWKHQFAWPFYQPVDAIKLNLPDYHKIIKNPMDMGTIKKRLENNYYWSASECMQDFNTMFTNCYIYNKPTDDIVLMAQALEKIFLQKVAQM", "assay": "Epigenetic binding assay, Bromodomain", "settings": "read-out: % Inhibition of Control Specific Binding"}, "Deacetylase, Histone 2": {"molecular_target": "T3, Deacetylase, Histone 2 (Homo sapiens, UniProt Q92769)", "T3 construct": "host or cells: Insect Sf9 cells", "T3 sequence (Q92769 whole entry)": "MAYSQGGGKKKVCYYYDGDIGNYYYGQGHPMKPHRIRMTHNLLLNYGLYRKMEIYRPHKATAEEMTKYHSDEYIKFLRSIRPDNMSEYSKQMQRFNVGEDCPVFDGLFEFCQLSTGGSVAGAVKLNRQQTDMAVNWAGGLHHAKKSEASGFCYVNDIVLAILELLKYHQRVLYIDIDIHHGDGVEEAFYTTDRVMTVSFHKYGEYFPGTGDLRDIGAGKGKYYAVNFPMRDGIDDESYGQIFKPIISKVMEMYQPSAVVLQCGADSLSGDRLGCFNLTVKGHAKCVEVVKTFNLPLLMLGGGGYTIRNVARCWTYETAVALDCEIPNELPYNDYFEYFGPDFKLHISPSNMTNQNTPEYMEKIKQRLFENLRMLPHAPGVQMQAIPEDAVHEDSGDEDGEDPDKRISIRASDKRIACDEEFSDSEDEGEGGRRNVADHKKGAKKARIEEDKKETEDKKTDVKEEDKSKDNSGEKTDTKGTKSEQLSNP", "assay": "Deacetylase, Histone 2 (PanLab)", "type": "biochemical", "procedure": "The in vitro pharmacological studies were conducted by Eurofins PanLab (Taiwan) using the parameters shown in Table 13 with respect to appropriate literature references."}, "[2]": {"settings": "Skin (Melanoma), read-out: Cell Count GI50"}, "[3]": {"settings": "assay year 2014, read-out: % Control Response"}, "[4]": {"settings": "assay year 2015, read-out: % Control Response"}}, "note": "Read-outs that look alike come from different tables or passages of the source."}
{"compound": "CC(C)=CCC[C@H](CO)[C@@H]1CC[C@@H](C)c2c1cc(C)c(O)c2O", "note": "[Compound 1, 7,8,18-trihydroxyserrulat-14-ene]", "values": [{"measurement": "GI50", "setting": "[1]; calculated on a weight-weight basis, read-out: GI50", "value": 0.37, "unit": "µg/mL"}, {"measurement": "EC50", "setting": "[1]; Skin (Melanoma)", "value": 1.18, "unit": "µM"}, {"measurement": "GI50", "setting": "[1]; [2]", "value": 1.16, "unit": "µM"}, {"measurement": "IC50", "setting": "[1]; Skin (Melanoma)", "value": 1.27, "unit": "µM"}, {"measurement": "inhibition at 10 µM", "setting": "DNMT3B/DNMT3L (h)", "value": 23, "unit": "%"}, {"measurement": "inhibition at 10 µM", "setting": "FBXL10 (h)", "value": 37, "unit": "%"}, {"measurement": "inhibition at 10 µM", "setting": "BRD3(1) (h) bromodomain", "value": 47, "unit": "%"}, {"measurement": "remaining activity at 10 µM", "setting": "Deacetylase, Histone 2; [3]", "value": 56, "unit": "%"}, {"measurement": "remaining activity at 10 µM", "setting": "Deacetylase, Histone 2; [4]", "value": 34, "unit": "%"}]}
{"compound": "CC(C)=CCC[C@@H]1C(O)Oc2c(C)cc(O)c3c2[C@H]1CC[C@H]3C", "note": "(stereo partly shown) [Compound 2, 5,18-epoxyserrulat-14-en-8,18-diol]", "values": [{"measurement": "EC50", "setting": "[1]; Skin (Melanoma)", "value": 9.07, "unit": "µM"}, {"measurement": "GI50", "setting": "[1]; [2]", "value": 8.99, "unit": "µM"}, {"measurement": "IC50", "setting": "[1]; Skin (Melanoma)", "value": 9.48, "unit": "µM"}, {"measurement": "inhibition at 10 µM", "setting": "DNMT3B/DNMT3L (h)", "value": 27, "unit": "%"}, {"measurement": "inhibition at 10 µM", "setting": "FBXL10 (h)", "value": 7, "unit": "%"}, {"measurement": "inhibition at 10 µM", "setting": "BRD3(1) (h) bromodomain", "value": 17, "unit": "%"}, {"measurement": "remaining activity at 10 µM", "setting": "Deacetylase, Histone 2; [3]", "value": 44, "unit": "%"}, {"measurement": "remaining activity at 10 µM", "setting": "Deacetylase, Histone 2; [4]", "value": 21, "unit": "%"}]}
{"compound": "CC(C)=CCC[C@@H]1COc2c(C)cc(O)c3c2[C@H]1CC[C@H]3C", "note": "[Compound 3, 5,18-epoxy-8-hydroxyserrulat-14-ene]", "values": [{"measurement": "inhibition at 10 µM", "setting": "DNMT3B/DNMT3L (h)", "value": -20, "unit": "%"}, {"measurement": "inhibition at 10 µM", "setting": "FBXL10 (h)", "value": 22, "unit": "%"}, {"measurement": "inhibition at 10 µM", "setting": "BRD3(1) (h) bromodomain", "value": 13, "unit": "%"}, {"measurement": "remaining activity at 10 µM", "setting": "Deacetylase, Histone 2; [4]", "value": 12, "unit": "%"}]}
{"compound": "CC(C)=CCC[C@H](C)[C@@H]1CC[C@@H](C)c2c1cc(C)c(O)c2O", "note": "[Compound 4, 7,8-dihydroxyserrulat-14-ene]", "values": [{"measurement": "EC50", "setting": "[1]; Skin (Melanoma)", "value": 5, "unit": "µM"}, {"measurement": "GI50", "setting": "[1]; [2]", "value": 4.02, "unit": "µM"}, {"measurement": "IC50", "setting": "[1]; Skin (Melanoma)", "value": 5.18, "unit": "µM"}]}
{"compound": "Nc1ncnc2c1ncn2[C@@H]1O[C@H](CSCC[C@H](N)C(=O)O)[C@@H](O)[C@H]1O", "note": "[SAH]", "values": [{"measurement": "IC50", "setting": "DNMT3B/DNMT3L (h); read-out: Reference IC50", "value": 0.045, "unit": "µM"}]}
